Experimental findings from patent US9914697B2, “Methods for making polymorphs of bromfenac sodium and bromfenac sodium formulations” (Johnson Matthey Public Limited Company, priority 2009, dated 2018) are described below.

Holding throughout (format): physicochemical
Data set [1] in a line: Stability of Form I polymorph on exposure to water vapour (XRPD and water content analyses). As to conditions: moisturized alongside a dish of water in a bag sealed under nitrogen for 19 h. On the procedure: Sodium salt of 2-amino-3-(4-bromobenzoyl)phenylacetic acid, Form I polymorph (0.6 g) was placed in a drying dish alongside a dish containing water (20 g) in a plastic bag. The bag was sealed under nitrogen and the product allowed to moisturize for 19 h.

Data set [2] can be described thus: Stability of polymorph towards atmospheric moisture (hydration and conversion). To be noted: must be protected from atmospheric moisture, hydrates to Form I. The source says: If so desired, the above-described procedures for producing bromfenac sodium Form I may be adapted and modified so as to provide a product that is a mixture of bromfenac sodium Form I and bromfenac sodium Form II. Bromfenac sodium Form II is a polymorph that is believed to be a monohydrate of bromfenac sodium, i.e., containing one water molecule per molecule of bromfenac sodium, and characterized by a powder x-ray diffraction pattern having main peaks expressed as 2-theta at about 11.3, 14.4, 16.5, 17.3, 18.5, 19.4, 20.7, 21.0, 22.7, 29.0, 31.8, 34.1 and 36.1 degrees. Drying the crystalline product initially obtained in the crystallization process described above under a vacuum results in the removal of some water of hydration from the sesquihydrate and the formation of the Form II polymorph, as evidenced by XRPD. The vacuum drying conditions may be adjusted so as to vary the Form II polymorph content of the product obtained. For example, higher drying temperatures, lower pressures, and increased drying times will generally all increase the amount of bromfenac sodium Form II present. It is believed that such parameters may be selected so as to provide bromfenac sodium Form II in substantially pure form (i.e., substantially free of any bromfenac sodium Form I or any other polymorph). […]

Data set [3] can be described thus: Rate of dissolution in water. To be noted: compared with bromfenac sodium Form I or other hydrated forms.
Data set [4] is described as follows: Water adsorption under wet nitrogen hydration conditions in vacuum oven. To be noted: 30-35° C. vacuum oven (5 mm Hg), 17 hours.

Take `Nc1c(CC(=O)[O-])cccc1C(=O)c1ccc(Br)cc1.Nc1c(CC(=O)[O-])cccc1C(=O)c1ccc(Br)cc1.O.O.O.[Na+].[Na+]` [Bromfenac sodium Form I, sodium salt of 2-amino-3-(4-bromobenzoyl)phenylacetic acid, sesquihydrate]: the “change in polymorphic form (XRPD and water content analyses)” value in data set [1] was “no change in polymorphic form”.

Consider `Nc1c(CC(=O)[O-])cccc1C(=O)c1ccc(Br)cc1.[Na+]` [Bromfenac sodium Form II, sodium salt of 2-amino-3-(4-bromobenzoyl)phenylacetic acid], for which, in data set [2], the “stability of the polymorph” value is given as “not stable”.

Take `Nc1c(CC(=O)[O-])cccc1C(=O)c1ccc(Br)cc1.[Na+]` [Bromfenac sodium Form III, sodium salt of 2-amino-3-(4-bromobenzoyl)phenylacetic acid]: the “rate of dissolution in water” value in data set [3] is on record as “significantly lower”. The “water content of sample after wet nitrogen hydration conditions” value in data set [4] was “did not change”.
